From paper PMC3692431, “Anticonvulsant Activity of B2, an Adenosine Analog, on Chemical Convulsant-Induced Seizures” (PLoS ONE, 2013)
Where two headings read alike, the source gives them in different places.

Columns and labels:
[1] = system: strychnine-induced seizures; assay: Strychnine-induced seizures in mice; type: in vivo; settings: strychnine 1.5 mg/kg i.p.; for mortality rate: control 88%; for latency to seizure onset prolonged by: vs control
Procedure: (§1) KA was dissolved in saline and the pH was adjusted to neutrality. The final concentration of KA was 0.7 µg/µl, and the convulsant dose was 1 µl (i.c.v.). […] The selective adenosine receptor antagonist DPCPX or SCH58261 was administered (i.p.) 5 min before administration of B2 or vehicle.
(§2) Mice were injected with B2 (1.25, 5, 20 mg/kg), carbamazepine (80 mg/kg) or vehicle 20 min before administration of strychnine (1.5 mg/kg) or 4-AP (13 mg/kg). […] The time of latency to seizure onset and mortality rate were recorded.

PTZ-induced seizures = PTZ-induced seizures with adenosine receptor antagonist pretreatment; type: in vivo, mice; settings: B2 5 mg/kg; PTZ 85 mg/kg; P<0.05
Procedure: as §1
Twenty min later, mice were admdinistered with PTZ (85 mg/kg).

[2] = system: c-Fos expression in the hippocampus; assay: PTZ-induced c-Fos expression, immunohistochemistry; type: in vivo, mice; settings: B2 5 mg/kg, PTZ 85 mg/kg, 2 h
Procedure: Mice were injected with either B2 (5 mg/kg) or vehicle 20 min before administration of PTZ (85 mg/kg). Two hours later, mice were either anesthetized for c-Fos analysis using immunohistochemistry or decapitated or western blotting.
Mice were anesthetized with chloral hydrate (400 mg/kg, i.p.) and perfused through the heart with saline solution followed by ice-cold 4% paraformaldehyde (PFA) in 0.1 M phosphate buffer (pH 7.4). Their brains were then removed, post-fixed in 4% PFA for 24 h at 4°C, and immersed in 30% sucrose at 4°C until they sank. Thereafter, coronal sections (30 µm) were cut using a freezing microtome (Leica RM2125).
Sections were immunostained using previously described methods. Sections were first immersed in 0.3% Triton X-100 for 10 min at room temperature, and then in 3% hydrogen peroxide for 10 min to quench endogenous peroxidase activity. Sections were then rinsed twice in 10 mM phosphate-buffered saline (pH 7.2) containing 0.3% Triton X-100. This was followed by incubation with diluted normal blocking serum (Vector Elite ABC kit) for 30 min and then 1∶800 rabbit polyclonal anti-c-Fos (primary) antibodies overnight at 4°C. Biotinylated secondary antibody solutions and VectaStain® Elite ABC reagents were applied. The peroxidase reaction was visualized using DAB with nickel ammonium sulfate for black staining. Sections were mounted, dehydrated and cover slipped. […]

[3] = biological target: T1, recombinant human adenosine A2A receptor (Homo sapiens, UniProt P29274); assay: cAMP accumulation assay in CHO cells expressing A2A receptor; type: cell-based; settings: CHO cells expressing human A2A receptors; read-out: EC50, elevation of cAMP levels
T1 construct: expressed in transfected cells; host or cells: CHO cells (provided by Professor R. B. Su)
Procedure: Chinese hamster ovary (CHO) cells expressing recombinant human A1/A2A receptors (provided by Professor R. B. Su of the Institute of Pharmacology and Toxicology, Academy of Military Medical Sciences, Beijing, China) were cultured in Dulbecco’s Modified Eagles Medium with the F12 nutrient mixture (DMEM/F12) containing no nucleosides, and with 10% fetal calf serum, penicillin (100 U/ml), streptomycin (100 µg/ml), L-glutamine (2 mM), and Geneticin at 37°C in a 5% CO2/95% atmosphere. The cells used to determine cAMP levels had viability >95%, as assessed by trypan blue exclusion.
Intracellular cyclic adenosine monophosphate (cAMP) levels were measured using a competitive protein binding method. To measure A1/A2A receptor-mediated accumulation of cAMP, cells were grown as confluent monolayers in 24-well cluster dishes. The cells were washed twice with 2 mL of medium containing 20 mM HEPES that had been prewarmed to 37°C, pH 7.4. The cells were then preincubated for 15 min in 0.4 mL fresh medium containing 30 µM of the cAMP phosphodiesterase inhibitor rolipram. B2 was added in 0.1 mL of medium and incubations continued for 15 min. The reaction was then terminated by removing the supernatant, and cells were lysed with the addition of 500 µl of 0.1 M ice-cold HCl. The cell lysate was centrifuged (4,000×g) at 4°C for 10 min. […] Bound radioactivity was measured by liquid scintillation spectrometry.

4-AP-induced seizures = 4-AP-induced seizures in mice; type: in vivo; settings: 4-AP 13 mg/kg; for latency of seizure onset prolonged by: vs control
Procedure: as §1, §2

[4] = system: picrotoxin-induced seizures; type: in vivo, mice; settings: picrotoxin 3.5 mg/kg; for mortality rate: control 50%; for latency to seizure onset prolonged by / number of seizures reduced by: vs control
Procedure: as §1
The latency of seizure onset, number of seizures, and mortality rate was recorded for the picrotoxin-injected mice. For the PTZ-injected mice, we recorded the latency of seizure onset, number of seizures, and presence of clonic seizures.

T1 sequence (P29274 whole entry): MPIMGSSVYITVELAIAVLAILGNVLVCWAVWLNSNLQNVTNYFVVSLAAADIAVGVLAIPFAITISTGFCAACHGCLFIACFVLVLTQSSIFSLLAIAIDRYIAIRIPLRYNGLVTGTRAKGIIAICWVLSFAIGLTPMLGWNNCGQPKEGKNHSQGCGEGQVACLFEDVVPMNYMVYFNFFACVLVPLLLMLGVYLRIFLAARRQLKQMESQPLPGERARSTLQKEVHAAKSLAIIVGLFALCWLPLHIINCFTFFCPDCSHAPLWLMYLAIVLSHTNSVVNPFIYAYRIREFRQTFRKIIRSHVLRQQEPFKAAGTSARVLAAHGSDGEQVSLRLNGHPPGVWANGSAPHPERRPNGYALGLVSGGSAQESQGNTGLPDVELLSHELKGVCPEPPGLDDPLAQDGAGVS

Compound: COc1cc(CNc2ncnc3c2ncn3[C@@H]2O[C@H](CO)[C@@H](O)[C@H]2O)ccc1O [B2, N^6-(3-methoxyl-4-hydroxybenzyl) adenine riboside]
- mortality rate ([1]; B2 1.25 mg/kg i.p.): 71%
- latency to seizure onset prolonged by ([1]; B2 1.25 mg/kg i.p.): 45%
- mortality rate ([1]; B2 5 mg/kg i.p.): 43%
- latency to seizure onset prolonged by ([1]; B2 5 mg/kg i.p.): 88%
- mortality rate ([1]; B2 20 mg/kg i.p.): 57%
- latency to seizure onset prolonged by ([1]; B2 20 mg/kg i.p.): 89%
- effect on latency to seizure onset (PTZ-induced seizures): significantly prolonged
- effect on PTZ-induced increase of c-Fos expression in the CA2/3 region [2]: minor effect
- effect on PTZ-induced increase of c-Fos expression in the dentate gyrus and CA1 [2]: significantly reversed
- EC50 [3]: 320 nM
- latency of seizure onset prolonged by (4-AP-induced seizures; B2 1.25 mg/kg i.p.): 25%
- latency of seizure onset prolonged by (4-AP-induced seizures; B2 5 mg/kg i.p.): 135%
- latency of seizure onset prolonged by (4-AP-induced seizures; B2 20 mg/kg i.p.): 96%
- effect on mortality rate (4-AP-induced seizures; B2 1.25, 5, 20 mg/kg i.p., control 100%): did not have a significant effect
- mortality rate ([4]; B2 1.25 mg/kg i.p.): 25%
- latency to seizure onset prolonged by ([4]; B2 1.25 mg/kg i.p.): 64%
- number of seizures reduced by ([4]; B2 1.25 mg/kg i.p.): 18%
- mortality rate ([4]; B2 5 mg/kg i.p.): 13%
- latency to seizure onset prolonged by ([4]; B2 5 mg/kg i.p.): 242%
- number of seizures reduced by ([4]; B2 5 mg/kg i.p.): 64%
- mortality rate ([4]; B2 20 mg/kg i.p.): 25%
- latency to seizure onset prolonged by ([4]; B2 20 mg/kg i.p.): 183%
- number of seizures reduced by ([4]; B2 20 mg/kg i.p.): 53%
